Results: ChEMBL document CHEMBL4482323, “Novel heterocyclic compound, method for preparing same, and pharmaceutical composition comprising same as active ingredient for preventing or treating cancer” (2017)

Assays:
SUMO-activating enzyme = SUMO-activating enzyme (Homo sapiens, UniProt Q9UBT2); assay: Inhibition of SAE (unknown origin) using recombinant His-tagged human SUMO1 measured after 2 hrs by HTRF assay; type: protein-complex assay
HCT-116 = assay: Antiproliferative activity against human HCT116 cells after 48 hrs by CCK8 assay; type: functional; details: HCT-116, 48 h, read-out: LD50 (the source's name)
THP-1 = assay: Antiproliferative activity against human THP1 cells after 48 hrs by CCK8 assay; type: functional; details: THP-1, 48 h, read-out: LD50 (the source's name)
NEDD8 activating enzyme = biological target: T1, NEDD8 activating enzyme (Homo sapiens, UniProt Q8TBC4); assay: Inhibition of NAE (unknown origin) using GST-tagged Ubc12 and Flag-tagged Nedd8 measured after 2 hrs by TR-FRET assay; type: protein-complex assay
T1 sequence (Q8TBC4 whole entry): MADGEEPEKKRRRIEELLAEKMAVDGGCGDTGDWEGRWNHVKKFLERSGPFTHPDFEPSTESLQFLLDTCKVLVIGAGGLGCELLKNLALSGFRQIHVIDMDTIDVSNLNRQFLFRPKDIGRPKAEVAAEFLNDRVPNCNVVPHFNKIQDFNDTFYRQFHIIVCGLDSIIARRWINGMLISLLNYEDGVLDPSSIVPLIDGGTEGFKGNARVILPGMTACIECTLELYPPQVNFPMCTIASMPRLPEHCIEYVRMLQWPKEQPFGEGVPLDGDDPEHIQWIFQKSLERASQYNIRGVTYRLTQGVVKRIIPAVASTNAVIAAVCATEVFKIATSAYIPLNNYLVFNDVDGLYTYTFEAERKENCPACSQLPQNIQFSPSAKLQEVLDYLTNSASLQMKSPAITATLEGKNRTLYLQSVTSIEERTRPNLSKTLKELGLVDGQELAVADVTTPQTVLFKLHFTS
T1 sequence (Q13564 whole entry): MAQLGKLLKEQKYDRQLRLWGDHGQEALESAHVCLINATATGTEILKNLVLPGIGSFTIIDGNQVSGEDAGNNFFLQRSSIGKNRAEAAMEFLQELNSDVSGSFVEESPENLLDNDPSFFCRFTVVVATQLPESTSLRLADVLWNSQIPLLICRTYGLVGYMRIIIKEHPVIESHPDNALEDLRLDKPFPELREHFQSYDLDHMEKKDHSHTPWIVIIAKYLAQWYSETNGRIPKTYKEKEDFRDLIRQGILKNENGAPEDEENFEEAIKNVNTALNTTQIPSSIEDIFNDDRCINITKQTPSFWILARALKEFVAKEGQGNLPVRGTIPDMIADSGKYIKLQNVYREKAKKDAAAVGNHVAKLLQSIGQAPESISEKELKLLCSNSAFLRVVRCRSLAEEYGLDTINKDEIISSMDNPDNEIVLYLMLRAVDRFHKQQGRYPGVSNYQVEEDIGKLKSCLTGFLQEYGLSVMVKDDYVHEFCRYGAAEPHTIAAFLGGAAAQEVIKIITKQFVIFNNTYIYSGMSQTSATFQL

SUMO-activating enzyme, sequence (Q9UBE0 whole entry): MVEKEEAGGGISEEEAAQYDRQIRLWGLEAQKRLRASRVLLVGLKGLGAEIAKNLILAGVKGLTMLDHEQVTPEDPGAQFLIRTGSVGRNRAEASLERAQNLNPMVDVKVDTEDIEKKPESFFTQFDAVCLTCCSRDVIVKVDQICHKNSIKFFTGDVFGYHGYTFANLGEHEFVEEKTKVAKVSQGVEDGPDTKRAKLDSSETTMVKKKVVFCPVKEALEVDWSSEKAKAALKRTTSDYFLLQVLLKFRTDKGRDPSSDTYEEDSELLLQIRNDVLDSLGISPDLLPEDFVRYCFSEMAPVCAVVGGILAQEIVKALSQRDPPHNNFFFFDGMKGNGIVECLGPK
SUMO-activating enzyme, sequence (Q9UBT2 whole entry): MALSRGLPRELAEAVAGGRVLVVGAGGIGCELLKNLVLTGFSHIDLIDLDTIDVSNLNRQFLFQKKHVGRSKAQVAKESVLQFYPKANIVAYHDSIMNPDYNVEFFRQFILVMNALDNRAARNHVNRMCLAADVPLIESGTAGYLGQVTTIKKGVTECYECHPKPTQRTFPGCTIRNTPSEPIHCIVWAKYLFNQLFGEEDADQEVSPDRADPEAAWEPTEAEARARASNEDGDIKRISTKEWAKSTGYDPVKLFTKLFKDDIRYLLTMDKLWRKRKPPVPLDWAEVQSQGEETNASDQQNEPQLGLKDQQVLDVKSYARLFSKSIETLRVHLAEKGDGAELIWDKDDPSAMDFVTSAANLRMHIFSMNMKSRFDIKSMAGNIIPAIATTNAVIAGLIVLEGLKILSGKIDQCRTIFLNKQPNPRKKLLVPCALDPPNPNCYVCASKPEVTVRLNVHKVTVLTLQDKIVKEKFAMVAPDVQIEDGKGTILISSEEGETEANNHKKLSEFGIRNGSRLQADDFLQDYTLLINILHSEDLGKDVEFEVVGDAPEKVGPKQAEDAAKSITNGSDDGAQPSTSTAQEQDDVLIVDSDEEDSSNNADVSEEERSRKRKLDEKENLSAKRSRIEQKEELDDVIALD

SMILES	IC50 (SUMO-activating enzyme)	CC50 (HCT-116)	CC50 (THP-1)	IC50 (NEDD8 activating enzyme)
NS(=O)(=O)OC[C@H]1C[C@@H](Nc2ncncc2C(=O)c2cn(CC3CCCCC3)c3ccccc23)[C@H](O)[C@@H]1O	1650 nM			
N#Cc1cccc(Cn2cc(C(=O)c3cncnc3N[C@@H]3C[C@H](COS(N)(=O)=O)[C@@H](O)[C@H]3O)c3ccccc32)c1		15100 nM	13200 nM	
NS(=O)(=O)OC[C@H]1C[C@@H](Nc2ncncc2C(=O)c2cn(Cc3ccccc3F)c3ccccc23)[C@H](O)[C@@H]1O	2880 nM	3120 nM	1000 nM	
Cc1cccc(Cn2cc(C(=O)c3cncnc3N[C@@H]3C[C@H](COS(N)(=O)=O)[C@@H](O)[C@H]3O)c3ccccc32)n1	2210 nM	413 nM	55.3 nM	
NS(=O)(=O)OC[C@H]1C[C@@H](Nc2ncncc2C(=O)c2cn(Cc3ccccc3)c3ccccc23)[C@@H](F)[C@@H]1O	1840 nM			
Cc1cccc(Cn2cc(C(=O)c3cncnc3N[C@@H]3C[C@H](COS(N)(=O)=O)[C@@H](O)[C@H]3O)c3cc(F)ccc32)c1	680 nM			
C/C=C/Cn1cc(C(=O)c2cncnc2NC2C[C@H](COS(N)(=O)=O)[C@@H](O)[C@H]2O)c2ccccc21 (single isomer, unassigned)	1860 nM			
NS(=O)(=O)OC[C@H]1C[C@@H](Nc2ncncc2C(=O)c2cn(Cc3cccc(Br)c3)c3ccc(F)cc23)[C@H](O)[C@@H]1O	530 nM	1010 nM	896 nM	0.9 nM
NS(=O)(=O)OC[C@H]1C[C@@H](Nc2ncncc2C(=O)c2nn(Cc3cccc(Br)c3)c3ccccc23)[C@H](O)[C@@H]1O	1700 nM			
COc1cccc(Cn2cc(C(=O)c3cncnc3N[C@@H]3C[C@H](COS(N)(=O)=O)[C@@H](O)[C@H]3O)c3ccccc32)c1	40 nM	431 nM	< 30 nM	22 nM
NS(=O)(=O)OC[C@H]1C[C@@H](Nc2ncncc2C(=O)c2cn(Cc3cccc(I)c3)c3ccccc23)[C@H](O)[C@@H]1O	470 nM	587 nM	163 nM	
Cc1c(Cn2cc(C(=O)c3cncnc3N[C@@H]3C[C@H](COS(N)(=O)=O)[C@@H](O)[C@H]3O)c3cc(F)ccc32)cccc1C(F)(F)F	990 nM			112 nM
NS(=O)(=O)OC[C@H]1C[C@@H](Nc2ncncc2C(=O)c2cn(Cc3cccc(F)c3)c3ccccc23)[C@H](O)[C@@H]1O	1650 nM	456 nM	< 30 nM	91 nM
NS(=O)(=O)OC[C@H]1C[C@@H](Nc2ncncc2C(=O)c2cn(Cc3ccc(F)c(Cl)c3)c3ccccc23)[C@H](O)[C@@H]1O	1600 nM	1800 nM	1430 nM	
NS(=O)(=O)OC[C@H]1C[C@@H](Nc2ncncc2C(=O)c2cn(Cc3ccc(S(F)(F)(F)(F)F)cc3)c3ccc(F)cc23)[C@H](O)[C@@H]1O				10 nM
NS(=O)(=O)OC[C@H]1C[C@@H](Nc2ncncc2C(=O)c2cn(Cc3ccc(F)cc3F)c3ccccc23)[C@H](O)[C@@H]1O	30 nM	1480 nM	1560 nM	8 nM
NS(=O)(=O)OC[C@H]1C[C@@H](Nc2ncncc2C(=O)c2cn(Cc3cc(Cl)ccc3Cl)c3ccccc23)[C@H](O)[C@@H]1O		643 nM	662 nM	37 nM
NS(=O)(=O)OC[C@H]1C[C@@H](Nc2ncncc2C(=O)c2cn(Cc3cccc(N4CCOCC4)c3)c3ccc(F)cc23)[C@H](O)[C@@H]1O	> 10000 nM			13 nM
NS(=O)(=O)OC[C@H]1C[C@@H](Nc2ncncc2C(=O)c2cn(Cc3ccc4ccccc4c3)c3ccc(F)cc23)[C@H](O)[C@@H]1O				141 nM
NS(=O)(=O)OC[C@H]1C[C@@H](Nc2ncncc2C(=O)c2cn(Cc3cc(C(F)(F)F)cc(C(F)(F)F)c3)c3ccccc23)[C@H](O)[C@@H]1O		4120 nM	2780 nM	
NS(=O)(=O)OC[C@H]1C[C@@H](Nc2ncncc2C(=O)c2cn(Cc3ccccc3)c3ccccc23)C[C@@H]1O	560 nM			0.6 nM
NS(=O)(=O)OC[C@H]1C[C@@H](Nc2ncncc2C(=O)c2cn(Cc3ccccc3)c3ccccc23)[C@H](O)[C@@H]1O	120 nM	228 nM	< 30 nM	5 nM
NS(=O)(=O)OC[C@H]1C[C@@H](Nc2ncncc2C(=O)c2cn(Cc3cccc(C(F)(F)F)c3)c3ccccc23)[C@H](O)[C@@H]1O	3180 nM	1240 nM	1280 nM	12 nM
NS(=O)(=O)OC[C@H]1C[C@@H](Nc2ncncc2C(=O)c2cn(Cc3ccc(C(F)(F)F)o3)c3ccccc23)[C@H](O)[C@@H]1O	1290 nM	2010 nM	813 nM	
NS(=O)(=O)OC[C@H]1C[C@@H](Nc2ncncc2C(=O)c2cn(Cc3ccc(F)c(F)c3)c3ccccc23)[C@H](O)[C@@H]1O	3480 nM	2280 nM	1810 nM	20 nM
NS(=O)(=O)OC[C@H]1C[C@@H](Nc2ncncc2C(=O)c2cn(Cc3cccc(Cl)c3)c3ccccc23)[C@H](O)[C@@H]1O	460 nM	790 nM	600 nM	19 nM
NS(=O)(=O)OC[C@H]1C[C@@H](Nc2ncncc2C(=O)c2cn(Cc3cccc(Br)c3)c3ncccc23)[C@H](O)[C@@H]1O	661 nM	2010 nM	813 nM	
Cc1cc(Cn2cc(C(=O)c3cncnc3N[C@@H]3C[C@H](COS(N)(=O)=O)[C@@H](O)[C@H]3O)c3cc(F)ccc32)ccc1F	1720 nM			15 nM
NS(=O)(=O)OC[C@H]1C[C@@H](Nc2ncncc2C(=O)c2cn(Cc3cccc(Br)c3)c3ccccc23)[C@H](O)[C@@H]1O	100 nM	934 nM	223 nM	
